Ki data for 32 compounds are collected here from ChEMBL document CHEMBL1129873, “PYRIDONE-BASED PEPTIDOMIMETIC INHIBITORS OF INTERLEUKIN-1-CONVERTING ENZYME (ICE)” (Bioorg Med Chem Lett, 1997).

pKi: −log10 of the molar value.

The target of this assay is T1, Caspase-1 (Homo sapiens, UniProt P29466).
T1 sequence (P29466 whole entry): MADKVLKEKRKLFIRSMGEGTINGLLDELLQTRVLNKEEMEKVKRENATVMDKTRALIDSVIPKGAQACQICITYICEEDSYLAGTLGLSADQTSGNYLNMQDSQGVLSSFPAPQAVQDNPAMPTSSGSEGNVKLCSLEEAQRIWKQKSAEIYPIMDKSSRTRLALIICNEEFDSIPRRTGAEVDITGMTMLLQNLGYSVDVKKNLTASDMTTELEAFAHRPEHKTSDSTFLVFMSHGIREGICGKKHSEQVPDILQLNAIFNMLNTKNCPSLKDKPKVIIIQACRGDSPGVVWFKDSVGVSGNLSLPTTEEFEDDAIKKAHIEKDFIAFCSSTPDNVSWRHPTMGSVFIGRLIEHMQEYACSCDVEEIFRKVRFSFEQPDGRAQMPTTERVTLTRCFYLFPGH
As to the kind of experiment: Reversible inhibition of recombinant human IL-1 beta converting enzyme.
For the compound `CC(=O)N[C@@H](Cc1ccc(O)cc1)C(=O)N[C@H](C(=O)N[C@@H](C)C(=O)N[C@@H](CC(=O)O)C(=O)COc1ccccc1)C(C)C`, the pKi was 8.96.
`CCCCc1ccc(NC(=O)c2cccc3ccccc23)c(=O)n1CC(=O)N[C@@H](CC(=O)O)C(=O)COc1ccccc1`: the negative-log Ki (pKi) is 7.80.
Turning to `CC(C)C(C(=O)N[C@@H](CC(=O)O)C(=O)COc1ccccc1)n1cccc(NC(=O)c2cccc3ccccc23)c1=O` (some centres not stated), the negative-log Ki (pKi) was 7.68.
On to `Cc1ccc(NC(=O)c2cccc3ccccc23)c(=O)n1CC(=O)N[C@@H](CC(=O)O)C(=O)COc1ccccc1`, for which the pKi was 7.02.
`CC(C)[C@H](NC(=O)c1ccc2ccccc2c1)C(=O)N1CCC[C@H]1C(=O)NC(CC(=O)O)C(=O)COc1ccccc1` (some centres not stated): the pKi is 9.70.
The same measure for `Cc1ccc(NC(=O)OCc2ccccc2)c(=O)n1CC(=O)N[C@@H](CC(=O)O)C(=O)COc1ccccc1`: 6.23.
As to `CCCc1ccc(NC(=O)c2cccc3ccccc23)c(=O)n1CC(=O)N[C@@H](CC(=O)O)C(=O)COc1ccccc1`, the negative logarithm of the Ki (pKi) was 7.17.
Take `CCC(C(=O)N[C@@H](CC(=O)O)C(=O)COc1ccccc1)n1cccc(NC(=O)c2cccc3ccccc23)c1=O` (some centres not stated): the negative logarithm of the Ki (pKi) is 8.66.
As for `CCC(C(=O)N[C@@H](CC(=O)O)C(=O)COc1ccccc1)n1cccc(NC(=O)c2ccc3ccccc3c2)c1=O` (some centres not stated), the pKi is 8.85.
Take `CCCCCCc1ccc(NC(=O)c2cccc3ccccc23)c(=O)n1CC(=O)N[C@@H](CC(=O)O)C(=O)COc1ccccc1`: the negative-log Ki (pKi) was 7.40.
The same measure for `CCCC(C(=O)N[C@@H](CC(=O)O)C(=O)COc1ccccc1)n1c(C)ccc(NC(=O)c2ccc3ccccc3c2)c1=O` (some centres not stated): 5.66; for `O=C(O)C[C@H](NC(=O)Cn1cccc(NC(=O)c2ccc3ccccc3c2)c1=O)C(=O)COc1ccccc1`: 7.35; for `CC(C(=O)N[C@@H](CC(=O)O)C(=O)COc1ccccc1)n1cccc(NC(=O)c2ccc3ccccc3c2)c1=O` (some centres not stated): 7.85.
As for `Cc1ccc(NC(=O)c2ccccc2)c(=O)n1CC(=O)N[C@@H](CC(=O)O)C(=O)COc1ccccc1`, the pKi was 6.28.
For the compound `CCCC(C(=O)N[C@@H](CC(=O)O)C(=O)COc1ccccc1)n1c(-c2ccccc2)ccc(NC(=O)c2cccc3ccccc23)c1=O` (some centres not stated), the negative-log Ki (pKi) is 5.14.
Next, `COCC(C(=O)N[C@@H](CC(=O)O)C(=O)COc1ccccc1)n1cccc(NC(=O)c2ccc3ccccc3c2)c1=O` (some centres not stated): 8.15; `CCCCc1ncc(NC(=O)c2cccc3ccccc23)c(=O)n1CC(=O)N[C@@H](CC(=O)O)C(=O)COc1ccccc1`: 7.34.
Next, `C=CCC(C(=O)N[C@@H](CC(=O)O)C(=O)COc1ccccc1)n1cccc(NC(=O)c2ccc3ccccc3c2)c1=O` (some centres not stated): 8.82; `O=C(O)C[C@H](NC(=O)Cn1c(Cc2ccccc2)ccc(NC(=O)c2cccc3ccccc23)c1=O)C(=O)COc1ccccc1`: 8.00.
Regarding `CCc1ccc(NC(=O)c2cccc3ccccc23)c(=O)n1CC(=O)N[C@@H](CC(=O)O)C(=O)COc1ccccc1`, the pKi was 7.40.
In the case of `CC(C(=O)N[C@@H](CC(=O)O)C(=O)COc1ccccc1)n1cccc(NC(=O)c2cccc3ccccc23)c1=O` (some centres not stated), the pKi was 8.15.
As for `O=C(O)C[C@H](NC(=O)Cn1c(-c2ccccc2)ccc(NC(=O)c2cccc3ccccc23)c1=O)C(=O)COc1ccccc1`, the pKi was 7.60.
On to `CCCC(C(=O)N[C@@H](CC(=O)O)C(=O)COc1ccccc1)n1cccc(NC(=O)c2cccc3ccccc23)c1=O` (some centres not stated), for which the pKi was 8.74.
As for `O=C(O)C[C@H](NC(=O)Cn1c(-c2ccccc2)ncc(NC(=O)c2cccc3ccccc23)c1=O)C(=O)COc1ccccc1`, the pKi is 7.18.
As for `O=C(O)C[C@H](NC(=O)C(c1ccccn1)n1cccc(NC(=O)c2ccc3ccccc3c2)c1=O)C(=O)COc1ccccc1` (some centres not stated), the pKi was 8.70.
Next, `CCCCC(C(=O)N[C@@H](CC(=O)O)C(=O)COc1ccccc1)n1cccc(NC(=O)c2cccc3ccccc23)c1=O` (some centres not stated): 8.28; `CC(C)[C@H](NC(=O)c1ccc2ccccc2c1)C(=O)N1CCCC[C@H]1C(=O)NC(CC(=O)O)C(=O)COc1ccccc1` (some centres not stated): 9.82.
`O=C(O)C[C@H](NC(=O)Cn1cccc(NC(=O)c2cccc3ccccc23)c1=O)C(=O)COc1ccccc1`: the negative-log Ki (pKi) was 7.41.
For the compound `CC(C)[C@H](NC(=O)c1ccc2ccccc2c1)C(=O)N[C@@H](C)C(=O)NC(CC(=O)O)C(=O)COc1ccccc1` (some centres not stated), the pKi is 9.82.
As to `O=C(O)C[C@H](NC(=O)C(c1ccccc1)n1cccc(NC(=O)c2ccc3ccccc3c2)c1=O)C(=O)COc1ccccc1` (some centres not stated), the negative logarithm of the Ki (pKi) was 8.89.
For the compound `O=C(O)C[C@H](NC(=O)C(c1ccccc1)n1cccc(NC(=O)c2cccc3ccccc23)c1=O)C(=O)COc1ccccc1` (some centres not stated), the pKi is 8.74.
As to `Cc1ccc(NC(=O)c2ccc3ccccc3c2)c(=O)n1CC(=O)N[C@@H](CC(=O)O)C(=O)COc1ccccc1`, the negative logarithm of the Ki (pKi) was 6.80.

Usually pKi stands for the Ki on a negative log10 scale, so that one unit is a factor of ten.
